# Like-named read-outs stand apart in the source and are kept apart here.
# Legend:
# Plasmodium falciparum = test: Malaria assay (luciferase-reporter Plasmodium falciparum); assay type: cell-based; conditions: for activity toward Plasmodium falciparum: levels tested up to 10 µg/mL
# Description: Mangrove endophytes isolated as described above were subject to small-scale cultivation on Sabouraud dextrose agar (SDA), freeze dried, then extracted with methanol. Extracts at a concentration of 30 mg/mL were screened in a luciferase-reporter Plasmodium falciparum assay.
# Malaria screening was done as previously reported.
# A549 cells = test: A549 cytotoxicity assay (CellTiter 96 Aqueous One); assay type: cell-based, human; conditions: 72 h incubation
# Description: Cell line A549 (adenocarcinomic human alveolar epithelial cells) was cultured in F-12K Nutrient Mixture (Kaighn’s Modification) media containing L-glutamine, supplemented with 10% fetal bovine serum and 1% penicillin-streptomycin. For the assay, the A549 cells were diluted to 1.33 × 10^5 cells/mL in DMEM F12 media with L-glutamine, without HEPES or phenol red, and supplemented with 2% fetal bovine serum and 1% penicillin-streptomycin. The A549 cells were dispensed into 96 well plates at a volume of 90 µL/well giving a final concentration of 12,000 cells per well. Plates were incubated for 24 h at 37 °C and 5% CO2. After 24 h, 10 µL of the test compounds at concentrations of 0.4, 1.2, 3.7, 11, 33.3 and 100 µg/mL were added to the 96 well plates containing A549 cells followed by 72 h of incubation at 37 °C and 5% CO2. A Beckman-Coulter Biomek NX 3000 was used to dispense cells and dispense test compounds to the 96 well plates. Positive (bronopol) and negative (blank DMSO) controls were included on each assay plate. After the incubation period, cell proliferation was assessed using Promega’s CellTiter 96 Aqueous One Solution Cell Proliferation Assay reagent. Into each well 20 µL of reagent was added followed by incubation for 3 h at 37 °C and 5% CO2. A Biotek plate reader was used to read absorbance at 490 nm and IC50 values were determined for each test compound.
# [1] = test system: methicillin-resistant Staphylococcus aureus (MRSA) USA100; test: Microtiter MIC determination against MRSA USA100; assay type: cell-based; conditions: for MIC: Staphylococcus aureus; for activity against MRSA: pure compound
# Description: (§1) The strain of MRSA used in our bioassays is a hospital-associated clone from the CDC USA 100 lineage. […] It is thus deemed an extensively drug resistant strain, and something of a worst-case scenario MRSA isolate.
# (§2) The minimum inhibitory concentration (MIC) of the pure compounds was determined as follows. Broth cultures were prepared for S. aureus strains as described above. These were diluted 1:1000 in fresh Trypticase Soy Broth (TSB) and 200 µL was applied to the wells of a sterile 96-well plate. Compounds (in DMSO) were added to wells at concentrations ranging from 1, 10, 25, 50 to 100 µg/mL in a volume no greater than 5 µL. Concentrations were adjusted to lower levels if applicable. Samples were mixed by pipetting and the plates were incubated at 37 °C overnight. MICs were determined by visual inspection for the minimum concentration of compound producing no bacterial growth, as determined by a lack of turbidity. Assays were repeated three times in order to verify the MIC determinations. […] Minimum bactericidal concentration (MBC) counts were performed on the MIC cultures by removing the growth media from each well the following morning, serially diluting, and plating onto Trypticase Soy Agar (TSA). These were incubated overnight at 37 °C and the bacterial loads of each well were determined by enumeration. Percentage killing was determined by the comparison of drug-containing wells to control wells where no compound was added.
# [2] = test system: methicillin-resistant Staphylococcus aureus (MRSA) USA100; test: Minimum bactericidal concentration (MBC) counts on MIC cultures; assay type: cell-based; conditions: for fold reduction in bacterial viability at MIC: MRSA USA100, at MIC; for MBC: Staphylococcus aureus, MRSA USA100, read-out: MRSA MBC90
# Description: as §1, §2
# MRSA biofilm = test: Minimum biofilm eradication count (MBEC) biofilm assay; assay type: cell-based, Staphylococcus aureus; conditions: MRSA USA100 biofilm; for MRSA MBEC90: 24 h exposure
# Description: as §1
# We performed minimum biofilm eradication count (MBEC) assays on cytosporones to assess their activity towards this form of bacterial growth. These were performed by generating S. aureus biofilms in a 96-well microtitre plate, as previously described. Once established, biofilm cultures were exposed to fresh growth media containing a range of concentrations of 15, 20, 25 and 50 µg/mL of the cytosporones. Control analyses were performed in parallel containing no compound. Cultures were incubated, covered, for 24 h at 37 °C without shaking. After this time the culture media was aseptically aspirated, and the wells rinsed twice with PBS to remove non-adherent cells. Fresh PBS (100 µL) was then added to the wells, and mixed by vigorous pipetting, to dislodge the biofilm matrix from the surface of the wells. These samples were serially diluted, plated on TSA, with cells enumerated after overnight incubation at 37 °C. Each of the above analyses was performed with 3 biological replicates, each of which also had 3 technical replicates. By comparing CFU/mL against control, no-exposed cultures, we were able to obtain a quantitative assessment of the impact of cytosporones on S. aureus biofilms.
# [3] = test system: methicillin-sensitive S. aureus (MSSA); test: Microtiter MIC determination against MSSA; assay type: cell-based; conditions: Staphylococcus aureus, methicillin-sensitive S. aureus strains
# Description: as §2
# [4] = MRSA USA100, overnight 37 °C, visual turbidity, read-out: MRSA MIC
SMILES,activity toward Plasmodium falciparum (Plasmodium falciparum),IC50 (A549 cells; Homo sapiens),"IC90 (A549 cells; Homo sapiens, A549, 72 h)","MIC [1, 4]",fold reduction in bacterial viability at MIC [2],"bacterial killing at twice the MIC ([2]; MRSA USA100, at twice the MIC)",MBC [2],MRSA MBEC90 (MRSA biofilm),fold reduction in biofilm (MBEC assay) at MIC (MRSA biofilm),fold reduction in biofilm formation at twice the MIC (MRSA biofilm; at twice the MIC),activity against MRSA [1],"IC90 (Plasmodium falciparum; Plasmodium falciparum, read-out: IC90 toward Plasmodium falciparum)",IC90 (A549 cells; listed as Cytosporone E (3)),MIC [3],MIC ([1]; read-out: MIC of positive control)
"CCCCCCCC(=O)c1c(O)cc(O)cc1CC(=O)OCC [Cytosporone B, cytosporone B]",inactive,170 µM,190 µM,78 µM,4.2 fold,complete killing of the bacteria,93 µM,110 µM,2 fold,168 fold,,,,,
"CCCCCCCC1OC(=O)Cc2cc(O)cc(O)c21 (stereo not shown) [Cytosporone C, cytosporone C]",inactive,690 µM,840 µM,> 358 µM,,,,,,,inactive,,,,
"CCCCCCCC1OC(=O)c2cc(O)c(O)c(O)c21 (stereo not shown) [Cytosporone E, cytosporone E]",,280 µM,437 µM,72 µM,> 5000 fold,,45 µM,39 µM,183 fold,,,13 µM,440 µM,72 µM,
"CCCCCCCC(=O)c1c(O)cc(O)cc1CC(=O)OCC(O)CO (stereo not shown) [Cytosporone R, cytosporone R]",,,,503 µM,,,,,,,inactive,,,,
"CN[C@H](CC(C)C)C(=O)N[C@H]1C(=O)N[C@@H](CC(N)=O)C(=O)N[C@H]2C(=O)N[C@H]3C(=O)N[C@H](C(=O)N[C@H](C(=O)O)c4cc(O)cc(O)c4-c4cc3ccc4O)[C@H](O)c3ccc(c(Cl)c3)Oc3cc2cc(c3O[C@@H]2O[C@H](CO)[C@@H](O)[C@H](O)[C@H]2O[C@H]2C[C@](C)(N)[C@H](O)[C@H](C)O2)Oc2ccc(cc2Cl)[C@H]1O [vancomycin, reference compound]",,,,,,,,,,,,,,,1 µg/mL
